Each structure is given as a SMILES string. Bridge positions count the residues as written; N and C are the ends. Square brackets hold non-standard residues; d marks the D form. Peptide text beside a SMILES is read from it. Phe(4-Br) = N[C@@H](Cc1ccc(Br)cc1)C(=O)O; Phe(4-Cl) = N[C@@H](Cc1ccc(Cl)cc1)C(=O)O; 1Nal = N[C@@H](Cc1cccc2ccccc12)C(=O)O; 2Nal = N[C@@H](Cc1ccc2ccccc2c1)C(=O)O; Phe(2-F) = N[C@@H](Cc1ccccc1F)C(=O)O; Cit = NC(=O)NCCC[C@H](N)C(=O)O; NMeA = CN[C@@H](C)C(=O)O; Sar = CNCC(=O)O

This test in a line: Agonist activity at EPO receptor in human TF1 cells assessed as induction of cell proliferation after 48 hrs by MTT assay.
With `CC[C@H](C)[C@@H]1NC(=O)[C@@H]2CCCN2C(=O)CNC(=O)[C@H](CCSC)NC(=O)[C@H](Cc2cnc[nH]2)NC(=O)[C@@H](NC(=O)[C@H](C)NC(=O)[C@H](Cc2ccc(O)cc2)NC(=O)[C@H](CC(C)C)NC(=O)CNC(=O)CNC(C)=O)CSSC[C@@H](C(=O)N[C@@H](CCC(N)=O)C(=O)N2CCC[C@H]2C(=O)N[C@@H](CC(C)C)C(=O)N[C@@H](CCCNC(=N)N)C(=O)N(C)CC(=O)N[C@@H](CCCCN)C(N)=O)NC(=O)[C@H](C(C)C)NC(=O)[C@H](Cc2cccc3ccccc23)NC(=O)[C@H]([C@@H](C)O)NC1=O`, the EC50 was 0.011 µM.

As for `CC[C@H](C)[C@@H]1NC(=O)[C@@H]2CCCN2C(=O)CNC(=O)[C@H](CCSC)NC(=O)[C@H](Cc2cnc[nH]2)NC(=O)[C@@H](NC(=O)[C@H](C)NC(=O)[C@H](Cc2ccc(O)cc2)NC(=O)[C@H](CC(C)C)NC(=O)CNC(=O)CNC(C)=O)CSSC[C@@H](C(=O)N[C@@H](CCC(N)=O)C(=O)N2CCC[C@H]2C(=O)N[C@@H](CC(C)C)C(=O)N[C@@H](CCCNC(N)=O)C(=O)N(C)CC(=O)N[C@@H](CCCCN)C(N)=O)NC(=O)[C@H](C(C)C)NC(=O)[C@H](Cc2cccc3ccccc23)NC(=O)[C@H]([C@@H](C)O)NC1=O` (Ac-GGLYACHMGPIT[1Nal]VCQPL[Cit][Sar]K-NH2; disulfide 6-15), the EC50 came to 0.031 µM. On to `CC[C@H](C)[C@@H]1NC(=O)[C@@H]2CCCN2C(=O)CNC(=O)[C@H](CCSC)NC(=O)[C@H](Cc2cnc[nH]2)NC(=O)[C@@H](NC(=O)[C@H](C)NC(=O)[C@H](Cc2ccc(O)cc2)NC(=O)[C@H](CC(C)C)NC(=O)CNC(=O)CNC(C)=O)CSSC[C@@H](C(=O)N[C@@H](CCC(N)=O)C(=O)N(C)[C@@H](C)C(=O)N[C@@H](CC(C)C)C(=O)N[C@@H](CCCNC(=N)N)C(=O)N(C)CC(=O)N[C@@H](CCCCN)C(N)=O)NC(=O)[C@H](C(C)C)NC(=O)[C@H](Cc2cccc3ccccc23)NC(=O)[C@H]([C@@H](C)O)NC1=O` (Ac-GGLYACHMGPIT[1Nal]VCQ[NMeA]LR[Sar]K-NH2; disulfide 6-15), for which the EC50 was 0.012 µM. `CC[C@H](C)[C@@H]1NC(=O)[C@@H]2CCCN2C(=O)CNC(=O)[C@H](CCSC)NC(=O)[C@H](Cc2cnc[nH]2)NC(=O)[C@@H](NC(=O)[C@H](C)NC(=O)[C@H](Cc2ccc(O)cc2)NC(=O)[C@H](CC(C)C)NC(=O)CNC(=O)CNC(C)=O)CSSC[C@@H](C(=O)N[C@@H](CCC(N)=O)C(=O)N(C)CC(=O)N[C@@H](CC(C)C)C(=O)N[C@@H](CCCNC(=N)N)C(=O)N(C)CC(=O)N[C@@H](CCCCN)C(N)=O)NC(=O)[C@H](C(C)C)NC(=O)[C@H](Cc2cccc3ccccc23)NC(=O)[C@H]([C@@H](C)O)NC1=O` (Ac-GGLYACHMGPIT[1Nal]VCQ[Sar]LR[Sar]K-NH2; disulfide 6-15): the EC50 turned out to be 0.042 µM. With `CC[C@H](C)[C@@H]1NC(=O)[C@@H]2CCCN2C(=O)CNC(=O)[C@H](CCSC)NC(=O)[C@H](Cc2cnc[nH]2)NC(=O)[C@@H](NC(=O)[C@H](C)NC(=O)[C@H](Cc2ccc(O)cc2)NC(=O)[C@H](CC(C)C)NC(=O)CNC(=O)CNC(C)=O)CSSC[C@@H](C(=O)N[C@@H](CCC(N)=O)C(=O)N2CCC[C@H]2C(=O)N[C@@H](CC(C)C)C(=O)N[C@@H](CCCNC(=N)N)C(=O)N(C)CC(=O)N[C@@H](CCCCN)C(N)=O)NC(=O)[C@H](C(C)C)NC(=O)[C@H](Cc2ccc3ccccc3c2)NC(=O)[C@H]([C@@H](C)O)NC1=O` (Ac-GGLYACHMGPIT[2Nal]VCQPLR[Sar]K-NH2; disulfide 6-15), the EC50 came to 0.54 µM. Then `CC[C@H](C)[C@@H]1NC(=O)[C@@H]2CCCN2C(=O)CNC(=O)[C@H](CCSC)NC(=O)[C@H](Cc2cnc[nH]2)NC(=O)[C@@H](NC(=O)[C@H](C)NC(=O)[C@H](Cc2ccc(O)cc2)NC(=O)[C@H](CC(C)C)NC(=O)CNC(=O)CNC(C)=O)CSSC[C@@H](C(=O)N[C@@H](CCC(N)=O)C(=O)N2CCC[C@H]2C(=O)N[C@@H](CC(C)C)C(=O)N[C@@H](CCCNC(=N)N)C(=O)N(C)CC(=O)N[C@@H](CCCCN)C(N)=O)NC(=O)[C@H](C(C)C)NC(=O)[C@H](Cc2ccccc2F)NC(=O)[C@H]([C@@H](C)O)NC1=O` (Ac-GGLYACHMGPIT[Phe(2-F)]VCQPLR[Sar]K-NH2; disulfide 6-15), with 0.54 µM; and `CC[C@H](C)[C@@H]1NC(=O)[C@@H]2CCCN2C(=O)CNC(=O)[C@H](CCSC)NC(=O)[C@H](Cc2cnc[nH]2)NC(=O)[C@@H](NC(=O)[C@H](C)NC(=O)[C@H](Cc2ccc(O)cc2)NC(=O)[C@H](CC(C)C)NC(=O)CNC(=O)CNC(C)=O)CSSC[C@@H](C(=O)N[C@@H](CCC(N)=O)C(=O)N2CCC[C@H]2C(=O)N[C@@H](CC(C)C)C(=O)N[C@@H](CCCNC(=N)N)C(=O)N(C)CC(=O)N[C@@H](CCCCN)C(N)=O)NC(=O)[C@H](C(C)C)NC(=O)[C@H](Cc2ccc(Br)cc2)NC(=O)[C@H]([C@@H](C)O)NC1=O` (Ac-GGLYACHMGPIT[Phe(4-Br)]VCQPLR[Sar]K-NH2; disulfide 6-15), with 0.54 µM; and `CC[C@H](C)[C@@H]1NC(=O)[C@@H]2CCCN2C(=O)CNC(=O)[C@H](CCSC)NC(=O)[C@H](Cc2cnc[nH]2)NC(=O)[C@@H](NC(=O)[C@H](C)NC(=O)[C@H](Cc2ccc(O)cc2)NC(=O)[C@H](CC(C)C)NC(=O)CNC(=O)CNC(C)=O)CSSC[C@@H](C(=O)N[C@@H](CCC(N)=O)C(=O)N2CCC[C@H]2C(=O)N[C@@H](CC(C)C)C(=O)N[C@@H](CCCNC(=N)N)C(=O)N(C)CC(=O)N[C@@H](CCCCN)C(N)=O)NC(=O)[C@H](C(C)C)NC(=O)[C@H](Cc2ccc(Cl)cc2)NC(=O)[C@H]([C@@H](C)O)NC1=O` (Ac-GGLYACHMGPIT[Phe(4-Cl)]VCQPLR[Sar]K-NH2; disulfide 6-15), with 0.24 µM.

In the case of `CC[C@H](C)[C@@H]1NC(=O)[C@H](C)N(C)C(=O)CNC(=O)[C@H](CCSC)NC(=O)[C@H](Cc2cnc[nH]2)NC(=O)[C@@H](NC(=O)[C@H](C)NC(=O)[C@H](Cc2ccc(O)cc2)NC(=O)[C@H](CC(C)C)NC(=O)CNC(=O)CNC(C)=O)CSSC[C@@H](C(=O)N[C@@H](CCC(N)=O)C(=O)N2CCC[C@H]2C(=O)N[C@@H](CC(C)C)C(=O)N[C@@H](CCCNC(=N)N)C(=O)N(C)CC(=O)N[C@@H](CCCCN)C(N)=O)NC(=O)[C@H](C(C)C)NC(=O)[C@H](Cc2cccc3ccccc23)NC(=O)[C@H]([C@@H](C)O)NC1=O` (Ac-GGLYACHMG[NMeA]IT[1Nal]VCQPLR[Sar]K-NH2; disulfide 6-15), the EC50 was found to be 0.026 µM.

Turning to `CC[C@H](C)[C@@H]1NC(=O)CN(C)C(=O)CNC(=O)[C@H](CCSC)NC(=O)[C@H](Cc2cnc[nH]2)NC(=O)[C@@H](NC(=O)[C@H](C)NC(=O)[C@H](Cc2ccc(O)cc2)NC(=O)[C@H](CC(C)C)NC(=O)CNC(=O)CNC(C)=O)CSSC[C@@H](C(=O)N[C@@H](CCC(N)=O)C(=O)N2CCC[C@H]2C(=O)N[C@@H](CC(C)C)C(=O)N[C@@H](CCCNC(=N)N)C(=O)N(C)CC(=O)N[C@@H](CCCCN)C(N)=O)NC(=O)[C@H](C(C)C)NC(=O)[C@H](Cc2cccc3ccccc23)NC(=O)[C@H]([C@@H](C)O)NC1=O` (Ac-GGLYACHMG[Sar]IT[1Nal]VCQPLR[Sar]K-NH2; disulfide 6-15), the EC50 is 0.031 µM.

One may read the EC50 as the concentration at which the effect is half-maximal.

Values taken from BindingDB's records for doi:10.1016/j.bmcl.2018.08.004 (Beijing Institute of Pharmacology and Toxicology, 2018).
